Results reported in a melting point compilation (Tetko et al.).

melting point [°C]	Structure (SMILES)
241 to 243	O=C(NC(NC(=O)c1ccccc1)c1ccccc1OCc1ccccc1Cl)c1ccccc1
105 to 107	COC(=O)c1cccc(Cn2nc(C)c(Br)c2C)c1
91	C=CCNC(SC)=C(C#N)C#N
68	CCCCCc1ccc(C(C)=NO)cc1
105	Clc1ncnc2sccc12
174	Oc1ccc(Cl)cc1Sc1cc(Cl)ccc1O
124	COc1ccc(C(=O)NCc2cccnc2)cc1C(=O)NCc1cccnc1
211	CN1C(=C(O)Nc2ccccn2)C(=O)c2sccc2S1(=O)=O
284	Cn1c(=O)c(C2=NNC(=O)C2=NNc2cc(Cl)ccc2Cl)c(O)c2ccccc21
322 to 328	NC(CC1CCCCC1)C(=O)O (stereo not given)
59	OCc1cc(C(F)(F)F)ccc1Cl
233 to 234	O=C(O)c1csc(-c2cccc(Cl)c2Cl)n1
174	CC12CCC(C=CC1=O)C2(C)C (stereo not given)
20	Oc1ccccc1S
82 to 83	O=C1Cc2ccccc2CO1
80 to 85	Cc1ccc(CS(=O)(=O)Cl)cc1
140	N#Cc1ccccc1C#N
62	COc1cc(C=O)ccc1F
161	O=[N+]([O-])c1ccc(C(Br)C(Br)c2cccc3ccccc23)c([N+](=O)[O-])c1 (stereo not given)
140 to 142	O=C(Oc1c(F)c(F)c(F)c(F)c1F)c1ccc(-c2cccs2)nc1
86	OCC1OC(OCC2OC(O)C(O)C(O)C2O)C(O)C(O)C1O (stereo not given)
73 to 75	Nc1cccc(CN2CCOCC2)c1
138	c1ccc2c(c1)c(Cc1cn(CN3CCCCC3)c3ccccc13)cn2CN1CCCCC1

melting point [°C]	Structure (SMILES)
105 to 106	CC(=O)c1cc([N+](=O)[O-])c(Br)s1
112	Cc1cc(C)c(C)c(CO)c1C
60	Clc1cccnc1Br
-6	CCC(C)(O)C(C)(C)C (stereo not given)
206	O=C(O)c1cnc2ccccc2n1
95	O=Cc1cc(Br)ccc1Br
-70	CCCCCCCCOC(=O)CCCCC(=O)OCCCCCCCC
15	N[C@@H]1CCc2ccccc21
> 20	CCOC(=O)C(CSC(=O)C(C)(C)Br)NC(C)=O (stereo not given)
259 to 263	O=C(O)Cn1cc(Cl)c(=O)c(Cl)c1
78 to 79	COC(=O)c1ccc(Oc2cccnc2)o1
270 to 275	N[C@@H](Cc1ccccc1)C(=O)O
144 to 145	NC(=S)Nc1ccc(C(F)(F)F)cc1
136	CC12CCCC1C1CC=C3CC(O)CCC3(C)C1CC2 (stereo not given)
107	COC(=O)c1ccc(O)c(Cl)c1
182	CN(C)c1ccc(C2(c3ccc(N(C)C)cc3)OC(=O)c3cc(N(C)C)ccc32)cc1
8	CCCCCC(O)CCCC (stereo not given)
142	O=C(O)Cc1ccc2ccccc2c1
115	CNCCOC(=O)C=C1CCC2C(C(O)CC3C(C)(C(=O)OC)CCCC23C)C1C (stereo not given)
136	CC(C)=CCC/C(C)=N/NC(N)=O
151	O=C(O)Cc1ccccc1CC(=O)O
78	CCNc1nsc2ccccc12
317	CC(=O)Nc1ccc(N=Nc2ccc([N+]([O-])=Nc3ccc(NC(C)=O)cc3)cc2)cc1

melting point [°C]	Structure (SMILES)
35	Clc1cccc(I)c1Cl
55	O=[N+]([O-])c1cc(C(F)(F)F)c(Cl)cc1Cl
64 to 66	O=C1CC2(CCCC2)CC(=O)O1
164	CSc1ncnc2c1ncn2C1OC(CO)C(O)C1O (stereo not given)
85 to 86	c1cnc2c(c1)OCCN2
130	O=C(OC(=O)c1ccc(C(F)(F)F)cc1)c1ccc(C(F)(F)F)cc1
68 to 69	O=Cc1ccccc1-c1cccnc1
222	C=CC1=C(C(=O)O)N2C(=O)C(NC(=O)C(=NOCC(=O)O)c3csc(N)n3)C2SC1 (stereo not given)
116	CC(OCc1ccccc1)C(NC(=O)OC(C)(C)C)C(=O)O (stereo not given)
71	CC1=Nc2c(ccc3ccccc23)C1(C)C
317	CC(=O)Nc1ccc(C2=NN(c3ccccc3)C(=O)/C2=C/C2C(=O)N(c3ccccc3)N=C2c2ccc(NC(C)=O)cc2)cc1 (stereo not given)
300	NC[C@H]1CC[C@H](C(=O)O)CC1
104	COc1cc(CCC(=O)O)cc(OC)c1OC
87.5	Nc1c(Br)cccc1Br
200	Nc1ccc(CC(=O)O)cc1
354	O=C1c2ccc(O)cc2C(=O)c2cc(O)ccc21
32	CC(=O)N1CCNCC1
248	O=C(O)CNCC(=O)O
177	CC1=C(C(=O)OC(C)C)C(c2ccccc2)NC(=S)N1 (stereo not given)
39 to 41	COc1ccc2c(c1)CC2O (stereo not given)
37	Cc1cccc(Cl)c1C=O
45.5	CCCCOc1ccc(OCCCC)cc1
132 to 134	O=C(O)Cc1ccc(O)c(F)c1

melting point [°C]	Structure (SMILES)
187 to 190	CCc1cccc(CC)c1NC(=O)CN(CC(=O)O)CC(=O)O
100	CC(C)(Oc1ccc(Cl)cc1)C(=O)OCCOC(=O)c1cccnc1
174 to 175	Cc1[nH]c2cc(C(F)(F)F)ccc2c1C(=O)N1CCCCC1
203	CCOC(=O)C1=C(C)NC(=O)NC1c1ccccc1C(F)(F)F (stereo not given)
82	CC1=C(C)C(O)OC1=O (stereo not given)
135 to 137	N#Cc1c(N)cccc1Cl
74 to 78	Nc1cccc(-c2cccnc2)c1
118	O=C(O)c1ccccc1Cc1ccccc1
133 to 134	Cc1ccc(N)c(C(=O)NN)c1
133	CC(=O)C(=Cc1ccccc1)C(=O)OC1CC(C)CCC1C(C)C (stereo not given)
173	c1ccc(Nc2nc(N3CCOCC3)nc(N3CCOCC3)n2)cc1
156 to 158	CSc1nc(N)ns1
186 to 189	CC(=O)N[C@H]1[C@H](OC(C)=O)O[C@H](COC(C)=O)[C@@H](OC(C)=O)[C@@H]1OC(C)=O
222	Cn1c(=O)c(C2=NNC(=O)C2=NNc2cccc(Cl)c2)c(O)c2ccccc21
191	CC1=C(C(=O)OC(C)C)C(c2ccco2)NC(=S)N1 (stereo not given)
111	COC(=O)C(C)(C)C(CC(=O)O)c1ccccc1 (stereo not given)
240 to 242	N=C1N=C2CCC(c3ccccc3)=NN2CN1
275	O=[N+]([O-])c1ccc2[nH]c(=S)[nH]c2c1
80 to 85	FC(F)(F)c1ccc(-c2nc(CCl)cs2)cc1
208 to 212	C[N+](C)(C)CC(O)CC(=O)[O-] (stereo not given)
75.8	c1ccc2nncnc2c1
172	CC(=O)Nc1ccc2c(c1)CCC2=O
290 to 293	Cc1ccc2[nH]c(S)nc2c1

melting point [°C]	Structure (SMILES)
-91.7	CC(F)(Cl)CCl (stereo not given)
122 to 123	O=Cc1ccc(-c2ccccn2)s1
182	COC(=O)CC[C@H](N)C(=O)O
67 to 71	O=C(OCc1ccccc1)N1c2ccccc2CC1CO (stereo not given)
71.2	Cc1cc(C(C)(C)C)c(C)cc1O
160 to 165	NC(=O)C[C@H](NC(=O)OCc1ccccc1)C(=O)O
< 20	Brc1cccc(Oc2ccc(Br)cc2Br)c1
100	OCCN1CCN(CCCN2c3ccccc3C=Cc3ccccc32)CC1
180 to 183	NC(CS(=O)(=O)c1ccc(F)cc1)=NO
165	COC1CC2C3(C)CCCC2(COC3)C2C(OC(C)=O)CC3C(C)C(=O)C12C3O (stereo not given)
139	CC1=CC(C(=O)O)c2ccccc21 (stereo not given)
105	CCOC(=O)CC(/C=C1\C(=O)C2(C)CCC1C2(C)C)(/C=C1\C(=O)C2(C)CCC1C2(C)C)C(=O)OCC (stereo not given)
164	O=CC(O)C(O)CO (stereo not given)
-60	C=C(C)C(=O)OCC
114	O=C(O)C(O)(O)C(O)(O)C(=O)O
142 to 143	Cc1ccccc1C(N)=S
112	OCC#CC#CCO
159 to 161	O=C(O)c1ccc(Cl)cc1Br
52	COC(=O)c1ccccc1C(=O)c1ccccc1
75	C1CN(CCN2CCOCC2)CCO1
68	c1ccc(CN2CCCNCCN(Cc3ccccc3)CCCNCC2)cc1
124	CCOc1ccc(Cc2nc(C)cc3cc(OC)c(OC)cc23)cc1OC

Structure (SMILES)	melting point [°C]
CCCCOC(=O)c1ccccc1C(=O)OCCCC	-35
CC(C)(C)C(O)C(Oc1ccc(-c2ccccc2)cc1)n1cncn1 (single isomer, unassigned; stereoisomer a)	139
O=[N+]([O-])c1c2c(c([N+](=O)[O-])c3c1CCCN3)NCCC2	187
CCOC(O)C(Cl)(Cl)Cl (stereo not given)	56.5
CN(C)c1ccc(N=Nc2ccccc2)cc1	117
CCSC(=O)N(CC)C1CCCCC1	11.5
Cc1ccc(C=C(C#N)C#N)cc1	132 to 133
CC12CCC3C(C(=O)CC4CC(O)CCC43C)C1CCC2=O (stereo not given)	199 to 200
CC(C)C(=O)Cl	-90
CCOP(=S)(Oc1ccc([N+](=O)[O-])cc1)c1ccccc1 (stereo not given)	36
O=[N+]([O-])c1ccc2c3c(cccc13)-c1ccccc1-2	153 to 157
Cc1ccc(NC(=O)NC(C)(C)c2ccccc2)cc1	203
O=C(O)C1(O)c2ccccc2-c2ccc(Cl)cc21 (stereo not given)	152
FC(F)=C(Cl)Cl	-116
CN1CC(Br)C(=O)NC1=O (stereo not given)	153 to 155
CCCN(CCC)C(=O)Cc1c(-c2ccc(Cl)cc2)nc2ccc(Cl)cn12	140
